Measured values reported in patent publication US7635709B2, “Compositions and methods for bowel care in individuals with chronic intestinal pseudo-obstruction” (priority 2002, dated 2009).

What was measured:
persons with SCI [1] = assay: Heart rate, blood pressure and side effects monitoring in thirteen SCI subjects (Example 3); type: in vivo, human; details: IV bolus 2 mg neostigmine, with or without 0.4 mg glycopyrrolate, 13 SCI subjects
Description: (§1) Thirteen (13) persons with SCI (5 quadriplegics, 8 paraplegics) with a mean age of 46 years (range 25-69) and mean duration of injury of 16 years (range 1-31) were treated. None of the subjects had known heart disease and/or history of arrhythmias.
(§2) On separate days, subjects were given by IV bolus either (i) 2 mg neostigmine alone, (ii) a combination of 2 mg neostigmine and 0.4 mg glycopyrrolate, or (iii) normal saline. Subjects were blinded to the type of infusion being delivered. The effect of these infusions on bowel evacuation was assessed semi-quantitatively on a scale of 0 (no evacuation) to 4+ (complete evacuation) using video fluoroscopy after rectal instillation of a barium-oatmeal paste having a consistency similar to that of stool. Blood pressure, heart rate and other vital signs were monitored in each subject. In addition, airway resistances were determined in each subject using the forced oscillation technique (as described, for example, in Goldman, Pulm. Pharmacol. Ther., 14(5):341-350, 2001). Total airway resistance was determined using 5 Hz forced oscillations, and central airway resistance was determined using 20 Hz forced oscillations.

[2] = test system: patients with acute colonic pseudo-obstruction; details: Ponec et al. 1999; cited from earlier work
persons with SCI [3] = assay: Airway resistance by forced oscillation technique in thirteen SCI subjects (Example 3); type: in vivo, human; details: IV bolus 2 mg neostigmine
Description: as §2

persons with SCI [4] = assay: Bowel evacuation score by video fluoroscopy after rectal barium-oatmeal paste in thirteen SCI subjects (Example 3); type: in vivo, human; details: IV bolus 2 mg neostigmine, with or without 0.4 mg glycopyrrolate, 13 SCI subjects
Description: as §1, §2
This response received a 0 (zero) bowel evacuation score. FIGS. 1B-1E show progressively increasing bowel evacuation responses in different subjects. The responses in FIGS. 1B-1E correspond to bowel evacuation scores of 1+, 2+, 3+, and 4+, respectively.

## CN(C)C(=O)Oc1cccc([N+](C)(C)C)c1 [neostigmine]
Persons with SCI [1]
  change in blood pressure after administration: No change
  other side effects (muscle twitching, sweating, vague abdominal sensations, salivation): transient and minimal
Persons with SCI [1]; p=0.02 between groups
  mean lowest heart rate measured: about 49 BMP
[2]
  passage of flatus or stool with reduction in abdominal distention: most patients successfully passed flatus or stool
Persons with SCI [3]; 5 Hz forced oscillations
  total airway resistance, increase over baseline: approximately 25.5%
Persons with SCI [3]; 20 Hz forced oscillations
  central airway resistance, increase over baseline: approximately 18.4%
Persons with SCI [4]
  subjects with prompt and complete evacuation: 57 % of subjects
  time of evacuation post infusion, mean: 11 min
Persons with SCI [4]; scale 0 (no evacuation) to 4+ (complete evacuation)
  mean bowel evacuation score: about 2.29
